# Values quoted from earlier work, collected in patent US9393243B1 (priority 2015, dated 2016).
# Counter-ions that a name gives are not always drawn. Like-named read-outs stand apart in the source and are kept apart here.
# What was measured:
# [1] = aqueous solutions, about 0.2 to about 1 weight percent
# [2] = tested on: a variety of bacterial pathogens; settings: typical value; T. L. Ke et al. 2001
Compound,pH at which precipitation was observed ([1]; 5° C.),pH at which precipitation was observed ([1]; room temperature),MIC90 [2]
O=C(O)c1cn(C2CC2)c2cc(N3CCNCC3)c(F)cc2c1=O [ciprofloxacin HCl],above 5,above 5.5,–
"O=C(O)c1cn(C2CC2)c2cc(N3CCNCC3)c(F)cc2c1=O [ciprofloxacin, 1-cyclopropyl-6-fluoro-1,4-dihydro-4-oxo-7-(1-piperazinyl)-3-quinolinecarboxylic acid]",–,–,around 0.5 μg/g
gentamycin,–,–,around 10 μg/gm
